Experiment: xn = mol fraction of the nth substance listed, in the solute-free solvent

CCCCOc1ccc(C(=O)CCN2CCCCC2)cc1.Cl + CO + C1CCOC1
solubility (g/100 g solution) (278.15 K, x2 = 0.1): 3.9 | solubility (g/100 g solution) (278.15 K, x2 = 0.2): 7.86 | solubility (g/100 g solution) (278.15 K, x2 = 0.3): 12 | solubility (g/100 g solution) (278.15 K, x2 = 0.4): 16.3 | solubility (g/100 g solution) (278.15 K, x2 = 0.5): 20.8 | solubility (g/100 g solution) (278.15 K, x2 = 0.6): 25.5 | solubility (g/100 g solution) (278.15 K, x2 = 0.7): 30.6 | solubility (g/100 g solution) (278.15 K, x2 = 0.8): 35.7 | solubility (g/100 g solution) (278.15 K, x2 = 0.9): 41.3 | solubility (g/100 g solution) (283.15 K, x2 = 0.1): 4.4 | solubility (g/100 g solution) (283.15 K, x2 = 0.2): 8.84 | solubility (g/100 g solution) (283.15 K, x2 = 0.3): 13.4 | solubility (g/100 g solution) (283.15 K, x2 = 0.4): 18.1 | solubility (g/100 g solution) (283.15 K, x2 = 0.5): 23.1 | solubility (g/100 g solution) (283.15 K, x2 = 0.6): 28.2 | solubility (g/100 g solution) (283.15 K, x2 = 0.7): 33.5 | solubility (g/100 g solution) (283.15 K, x2 = 0.8): 38.9 | solubility (g/100 g solution) (283.15 K, x2 = 0.9): 44.6 | solubility (g/100 g solution) (288.15 K, x2 = 0.1): 4.97 | solubility (g/100 g solution) (288.15 K, x2 = 0.2): 9.92 | solubility (g/100 g solution) (288.15 K, x2 = 0.3): 14.9 | solubility (g/100 g solution) (288.15 K, x2 = 0.4): 20.1 | solubility (g/100 g solution) (288.15 K, x2 = 0.5): 25.4 | solubility (g/100 g solution) (288.15 K, x2 = 0.6): 30.8 | solubility (g/100 g solution) (288.15 K, x2 = 0.7): 36.5 | solubility (g/100 g solution) (288.15 K, x2 = 0.8): 42 | solubility (g/100 g solution) (288.15 K, x2 = 0.9): 48 | solubility (g/100 g solution) (293.15 K, x2 = 0.1): 5.64 | solubility (g/100 g solution) (293.15 K, x2 = 0.2): 11.2 | solubility (g/100 g solution) (293.15 K, x2 = 0.3): 16.6 | solubility (g/100 g solution) (293.15 K, x2 = 0.4): 22.3 | solubility (g/100 g solution) (293.15 K, x2 = 0.5): 28 | solubility (g/100 g solution) (293.15 K, x2 = 0.6): 33.7 | solubility (g/100 g solution) (293.15 K, x2 = 0.7): 39.6 | solubility (g/100 g solution) (293.15 K, x2 = 0.8): 45.4 | solubility (g/100 g solution) (293.15 K, x2 = 0.9): 51.3 | solubility (g/100 g solution) (298.15 K, x2 = 0.1): 6.4 | solubility (g/100 g solution) (298.15 K, x2 = 0.2): 12.4 | solubility (g/100 g solution) (298.15 K, x2 = 0.3): 18.4 | solubility (g/100 g solution) (298.15 K, x2 = 0.4): 24.6 | solubility (g/100 g solution) (298.15 K, x2 = 0.5): 30.6 | solubility (g/100 g solution) (298.15 K, x2 = 0.6): 36.7 | solubility (g/100 g solution) (298.15 K, x2 = 0.7): 42.9 | solubility (g/100 g solution) (298.15 K, x2 = 0.8): 48.7 | solubility (g/100 g solution) (298.15 K, x2 = 0.9): 54.7 | solubility (g/100 g solution) (303.15 K, x2 = 0.1): 7.23 | solubility (g/100 g solution) (303.15 K, x2 = 0.2): 13.9 | solubility (g/100 g solution) (303.15 K, x2 = 0.3): 20.5 | solubility (g/100 g solution) (303.15 K, x2 = 0.4): 27 | solubility (g/100 g solution) (303.15 K, x2 = 0.5): 33.5 | solubility (g/100 g solution) (303.15 K, x2 = 0.6): 39.8 | solubility (g/100 g solution) (303.15 K, x2 = 0.7): 46.2 | solubility (g/100 g solution) (303.15 K, x2 = 0.8): 52.1 | solubility (g/100 g solution) (303.15 K, x2 = 0.9): 58.1 | solubility (g/100 g solution) (308.15 K, x2 = 0.1): 8.14 | solubility (g/100 g solution) (308.15 K, x2 = 0.2): 15.5 | solubility (g/100 g solution) (308.15 K, x2 = 0.3): 22.6 | solubility (g/100 g solution) (308.15 K, x2 = 0.4): 29.6 | solubility (g/100 g solution) (308.15 K, x2 = 0.5): 36.5 | solubility (g/100 g solution) (308.15 K, x2 = 0.6): 43 | solubility (g/100 g solution) (308.15 K, x2 = 0.7): 49.6 | solubility (g/100 g solution) (308.15 K, x2 = 0.8): 55.5 | solubility (g/100 g solution) (308.15 K, x2 = 0.9): 61.5 | solubility (g/100 g solution) (313.15 K, x2 = 0.1): 9.22 | solubility (g/100 g solution) (313.15 K, x2 = 0.2): 17.2 | solubility (g/100 g solution) (313.15 K, x2 = 0.3): 24.9 | solubility (g/100 g solution) (313.15 K, x2 = 0.4): 32.5 | solubility (g/100 g solution) (313.15 K, x2 = 0.5): 39.6 | solubility (g/100 g solution) (313.15 K, x2 = 0.6): 46.4 | solubility (g/100 g solution) (313.15 K, x2 = 0.7): 53 | solubility (g/100 g solution) (313.15 K, x2 = 0.8): 59 | solubility (g/100 g solution) (313.15 K, x2 = 0.9): 64.9 | solubility (g/100 g solution) (318.15 K, x2 = 0.1): 10.4 | solubility (g/100 g solution) (318.15 K, x2 = 0.2): 19.1 | solubility (g/100 g solution) (318.15 K, x2 = 0.3): 27.4 | solubility (g/100 g solution) (318.15 K, x2 = 0.4): 35.4 | solubility (g/100 g solution) (318.15 K, x2 = 0.5): 42.8 | solubility (g/100 g solution) (318.15 K, x2 = 0.6): 49.9 | solubility (g/100 g solution) (318.15 K, x2 = 0.7): 56.5 | solubility (g/100 g solution) (318.15 K, x2 = 0.8): 62.5 | solubility (g/100 g solution) (318.15 K, x2 = 0.9): 68 | solubility (g/100 g solution) (323.15 K, x2 = 0.1): 11.6 | solubility (g/100 g solution) (323.15 K, x2 = 0.2): 21.1 | solubility (g/100 g solution) (323.15 K, x2 = 0.3): 30 | solubility (g/100 g solution) (323.15 K, x2 = 0.4): 38.5 | solubility (g/100 g solution) (323.15 K, x2 = 0.5): 46.2 | solubility (g/100 g solution) (323.15 K, x2 = 0.6): 53.3 | solubility (g/100 g solution) (323.15 K, x2 = 0.7): 59.9 | solubility (g/100 g solution) (323.15 K, x2 = 0.8): 65.8 | solubility (g/100 g solution) (323.15 K, x2 = 0.9): 71.3
